Like-named read-outs stand apart in the source and are kept apart here.
What was measured:
Assay in all cases: Radiolabeled ATP kinase assay, panel of 60 kinases (Table S5)
Type in all cases: biochemical
[1] = target: T1, panel of 60 human kinases (Homo sapiens, UniProt Q7L7X3); conditions: TAOK1; 0.1 μM; 10 μM ATP; read-out: % Enzyme Activity (relative to DSMO controls)
T1 construct: purchased Reaction Biology Corp
T1 sequence (Q7L7X3 1-1001): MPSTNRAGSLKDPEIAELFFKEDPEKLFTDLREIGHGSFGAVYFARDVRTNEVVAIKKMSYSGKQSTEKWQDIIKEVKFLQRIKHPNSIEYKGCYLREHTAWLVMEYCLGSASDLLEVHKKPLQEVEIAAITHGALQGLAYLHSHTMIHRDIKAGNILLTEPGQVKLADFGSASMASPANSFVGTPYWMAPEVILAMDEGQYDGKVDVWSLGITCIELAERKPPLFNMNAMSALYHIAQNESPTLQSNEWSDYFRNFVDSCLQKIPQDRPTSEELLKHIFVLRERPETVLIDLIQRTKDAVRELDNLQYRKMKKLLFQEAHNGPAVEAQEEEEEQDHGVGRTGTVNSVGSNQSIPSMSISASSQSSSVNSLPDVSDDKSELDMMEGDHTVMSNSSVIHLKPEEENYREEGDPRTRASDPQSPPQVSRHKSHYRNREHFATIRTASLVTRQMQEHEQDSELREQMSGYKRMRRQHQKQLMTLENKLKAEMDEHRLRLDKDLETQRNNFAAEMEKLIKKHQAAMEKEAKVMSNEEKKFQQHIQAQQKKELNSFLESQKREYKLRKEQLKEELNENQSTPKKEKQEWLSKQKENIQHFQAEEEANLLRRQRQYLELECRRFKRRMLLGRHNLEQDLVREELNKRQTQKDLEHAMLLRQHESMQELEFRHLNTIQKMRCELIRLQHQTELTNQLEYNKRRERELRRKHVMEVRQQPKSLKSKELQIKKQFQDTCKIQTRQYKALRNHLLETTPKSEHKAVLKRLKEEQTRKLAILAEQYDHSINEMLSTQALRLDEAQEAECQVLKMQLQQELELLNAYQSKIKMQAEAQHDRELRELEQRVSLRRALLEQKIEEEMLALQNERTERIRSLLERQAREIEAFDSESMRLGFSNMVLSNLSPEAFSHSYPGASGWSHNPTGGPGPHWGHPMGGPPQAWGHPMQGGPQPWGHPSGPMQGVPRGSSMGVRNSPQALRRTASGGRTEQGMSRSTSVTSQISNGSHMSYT
Method in brief: (§1)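 Compounds at two concentrations, 0.1 μM and 0.5 μM, were screened for inhibition of 60 kinases in cell-free assays read out by radiolabeled ATP.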

[2] = target: T2, panel of 60 human kinases (Homo sapiens, UniProt O60285); conditions: ARK5/NUAK1; 0.1 μM; 10 μM ATP; read-out: % Enzyme Activity (relative to DSMO controls)
T2 construct: purchased Reaction Biology Corp
T2 sequence (O60285 1-661): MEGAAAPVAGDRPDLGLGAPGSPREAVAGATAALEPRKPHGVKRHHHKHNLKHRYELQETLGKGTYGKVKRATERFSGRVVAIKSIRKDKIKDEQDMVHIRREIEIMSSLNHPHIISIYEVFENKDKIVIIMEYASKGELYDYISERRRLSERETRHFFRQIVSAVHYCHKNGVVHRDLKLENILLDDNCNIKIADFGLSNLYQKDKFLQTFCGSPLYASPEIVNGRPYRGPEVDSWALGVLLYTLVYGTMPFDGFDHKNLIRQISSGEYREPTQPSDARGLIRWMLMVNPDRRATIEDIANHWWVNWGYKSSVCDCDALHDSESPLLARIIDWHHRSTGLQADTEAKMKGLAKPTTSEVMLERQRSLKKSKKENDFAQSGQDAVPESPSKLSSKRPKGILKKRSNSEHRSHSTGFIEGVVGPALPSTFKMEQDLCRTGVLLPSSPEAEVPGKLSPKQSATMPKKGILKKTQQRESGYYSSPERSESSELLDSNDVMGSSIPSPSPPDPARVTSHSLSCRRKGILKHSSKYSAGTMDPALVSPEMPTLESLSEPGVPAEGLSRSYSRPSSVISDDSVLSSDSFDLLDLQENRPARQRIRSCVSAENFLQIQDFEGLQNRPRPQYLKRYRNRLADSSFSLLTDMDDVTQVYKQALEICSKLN
Method in brief: as §1

[3] = target: T3, panel of 60 human kinases (Homo sapiens, UniProt O75460); conditions: ERN1/IRE1; 0.1 μM; 10 μM ATP; read-out: % Enzyme Activity (relative to DSMO controls)
T3 construct: purchased Reaction Biology Corp
Method in brief: as §1

[4] = target: T4, panel of 60 human kinases (Homo sapiens, UniProt P49760); conditions: CLK2; 0.1 μM; 10 μM ATP; read-out: % Enzyme Activity (relative to DSMO controls)
T4 construct: purchased Reaction Biology Corp
Method in brief: as §1

[5] = target: T5, panel of 60 human kinases (Homo sapiens, UniProt P11802); conditions: 0.1 μM, 10 μM ATP, read-out: % Enzyme Activity (relative to DSMO controls)
T5 construct: purchased Reaction Biology Corp
Method in brief: as §1

[6] = target: T6, panel of 60 human kinases (Homo sapiens, UniProt P24941); conditions: 0.1 μM, 10 μM ATP, read-out: % Enzyme Activity (relative to DSMO controls)
T6 construct: purchased Reaction Biology Corp
Method in brief: as §1

[7] = target: T7, panel of 60 human kinases (Homo sapiens, UniProt Q07002); conditions: CDK18/cyclin Y (PCTK3); 0.1 μM; 10 μM ATP; read-out: % Enzyme Activity (relative to DSMO controls)
T7 construct: purchased Reaction Biology Corp
Method in brief: as §1

[8] = target: T8, panel of 60 human kinases (Homo sapiens, UniProt P49841); conditions: GSK3b; 0.1 μM; 10 μM ATP; read-out: % Enzyme Activity (relative to DSMO controls)
T8 construct: purchased Reaction Biology Corp
Method in brief: as §1

[9] = target: T9, panel of 60 human kinases (Homo sapiens, UniProt Q9UM73); conditions: ALK; 0.1 μM; 10 μM ATP; read-out: % Enzyme Activity (relative to DSMO controls)
T9 construct: purchased Reaction Biology Corp
Method in brief: as §1

[10] = target: T10, panel of 60 human kinases (Homo sapiens, UniProt Q13627); conditions: DYRK/RK1A; 0.1 μM; 10 μM ATP; read-out: % Enzyme Activity (relative to DSMO controls)
T10 construct: purchased Reaction Biology Corp
Method in brief: as §1

T5 sequence (P11802 whole entry): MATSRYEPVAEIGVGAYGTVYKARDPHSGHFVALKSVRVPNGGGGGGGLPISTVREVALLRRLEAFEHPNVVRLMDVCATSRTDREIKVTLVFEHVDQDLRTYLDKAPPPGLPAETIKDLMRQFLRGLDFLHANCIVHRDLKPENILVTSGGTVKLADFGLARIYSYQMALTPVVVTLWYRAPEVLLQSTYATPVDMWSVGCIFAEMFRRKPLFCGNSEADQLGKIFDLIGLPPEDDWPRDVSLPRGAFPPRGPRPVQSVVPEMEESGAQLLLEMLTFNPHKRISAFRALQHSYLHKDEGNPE
T9 sequence (Q9UM73 19-1620): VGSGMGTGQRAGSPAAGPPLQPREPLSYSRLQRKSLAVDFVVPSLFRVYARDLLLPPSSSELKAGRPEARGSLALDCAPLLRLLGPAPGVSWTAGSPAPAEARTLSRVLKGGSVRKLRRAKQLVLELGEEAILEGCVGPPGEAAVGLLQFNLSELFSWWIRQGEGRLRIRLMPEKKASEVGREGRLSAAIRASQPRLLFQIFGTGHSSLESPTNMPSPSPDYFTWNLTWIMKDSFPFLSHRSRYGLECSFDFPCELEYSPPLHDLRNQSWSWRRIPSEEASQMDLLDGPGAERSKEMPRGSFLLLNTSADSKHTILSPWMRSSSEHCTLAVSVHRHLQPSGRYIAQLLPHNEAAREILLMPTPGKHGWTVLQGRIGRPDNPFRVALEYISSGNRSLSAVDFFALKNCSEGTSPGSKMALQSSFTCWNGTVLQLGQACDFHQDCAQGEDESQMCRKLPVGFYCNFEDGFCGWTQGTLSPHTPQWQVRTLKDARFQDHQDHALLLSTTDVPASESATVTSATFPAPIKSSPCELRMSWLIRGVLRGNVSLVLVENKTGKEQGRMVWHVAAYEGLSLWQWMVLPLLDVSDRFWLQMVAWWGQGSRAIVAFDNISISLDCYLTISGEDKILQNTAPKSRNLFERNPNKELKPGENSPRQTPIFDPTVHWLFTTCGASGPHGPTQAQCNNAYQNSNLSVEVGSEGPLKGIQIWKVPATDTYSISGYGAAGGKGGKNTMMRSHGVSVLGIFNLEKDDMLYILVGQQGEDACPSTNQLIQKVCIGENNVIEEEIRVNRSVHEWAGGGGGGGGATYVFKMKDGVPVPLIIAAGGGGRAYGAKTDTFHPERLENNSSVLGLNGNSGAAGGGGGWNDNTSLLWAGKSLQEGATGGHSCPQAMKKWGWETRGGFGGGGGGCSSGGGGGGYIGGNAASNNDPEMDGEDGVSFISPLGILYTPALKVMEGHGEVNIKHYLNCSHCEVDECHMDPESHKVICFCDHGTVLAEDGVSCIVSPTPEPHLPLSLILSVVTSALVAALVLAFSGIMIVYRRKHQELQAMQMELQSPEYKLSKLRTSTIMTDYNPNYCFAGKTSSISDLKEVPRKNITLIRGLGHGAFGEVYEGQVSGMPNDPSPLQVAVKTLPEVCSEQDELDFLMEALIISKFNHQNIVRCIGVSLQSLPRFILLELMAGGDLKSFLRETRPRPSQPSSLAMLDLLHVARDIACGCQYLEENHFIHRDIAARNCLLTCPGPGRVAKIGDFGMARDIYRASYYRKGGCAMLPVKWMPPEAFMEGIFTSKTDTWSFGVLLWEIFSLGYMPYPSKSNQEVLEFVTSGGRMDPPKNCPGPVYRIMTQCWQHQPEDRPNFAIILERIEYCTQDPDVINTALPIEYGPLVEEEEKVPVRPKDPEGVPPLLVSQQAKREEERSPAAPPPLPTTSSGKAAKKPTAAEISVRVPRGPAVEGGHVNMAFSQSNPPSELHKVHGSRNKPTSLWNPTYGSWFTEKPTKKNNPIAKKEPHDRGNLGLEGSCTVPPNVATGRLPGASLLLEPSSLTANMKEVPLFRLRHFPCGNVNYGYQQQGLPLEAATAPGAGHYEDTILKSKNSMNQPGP
T3 sequence (O75460 19-977): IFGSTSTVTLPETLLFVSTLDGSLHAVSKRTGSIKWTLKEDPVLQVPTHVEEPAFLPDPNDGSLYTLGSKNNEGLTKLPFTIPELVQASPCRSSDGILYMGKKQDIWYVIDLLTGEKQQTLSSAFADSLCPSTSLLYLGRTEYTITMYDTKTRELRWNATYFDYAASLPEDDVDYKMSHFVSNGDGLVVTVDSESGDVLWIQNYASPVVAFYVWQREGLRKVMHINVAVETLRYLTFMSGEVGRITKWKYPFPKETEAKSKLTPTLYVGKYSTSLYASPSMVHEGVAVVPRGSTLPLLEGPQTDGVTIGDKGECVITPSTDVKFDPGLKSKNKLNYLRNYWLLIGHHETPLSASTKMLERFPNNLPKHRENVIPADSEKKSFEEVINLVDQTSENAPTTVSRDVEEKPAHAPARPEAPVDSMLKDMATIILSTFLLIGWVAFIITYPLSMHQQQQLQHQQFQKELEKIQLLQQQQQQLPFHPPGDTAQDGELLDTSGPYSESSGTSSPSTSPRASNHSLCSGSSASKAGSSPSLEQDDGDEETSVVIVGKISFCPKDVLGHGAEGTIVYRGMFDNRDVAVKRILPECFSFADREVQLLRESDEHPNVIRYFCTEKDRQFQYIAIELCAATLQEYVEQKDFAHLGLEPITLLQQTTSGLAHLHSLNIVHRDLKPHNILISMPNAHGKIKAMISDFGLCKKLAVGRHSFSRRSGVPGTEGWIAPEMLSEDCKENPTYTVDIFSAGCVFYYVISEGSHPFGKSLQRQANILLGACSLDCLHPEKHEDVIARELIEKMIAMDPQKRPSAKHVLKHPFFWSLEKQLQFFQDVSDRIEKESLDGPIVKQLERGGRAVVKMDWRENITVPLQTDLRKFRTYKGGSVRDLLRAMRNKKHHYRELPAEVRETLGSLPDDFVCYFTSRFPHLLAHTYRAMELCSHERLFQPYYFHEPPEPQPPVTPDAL
T4 sequence (P49760 whole entry): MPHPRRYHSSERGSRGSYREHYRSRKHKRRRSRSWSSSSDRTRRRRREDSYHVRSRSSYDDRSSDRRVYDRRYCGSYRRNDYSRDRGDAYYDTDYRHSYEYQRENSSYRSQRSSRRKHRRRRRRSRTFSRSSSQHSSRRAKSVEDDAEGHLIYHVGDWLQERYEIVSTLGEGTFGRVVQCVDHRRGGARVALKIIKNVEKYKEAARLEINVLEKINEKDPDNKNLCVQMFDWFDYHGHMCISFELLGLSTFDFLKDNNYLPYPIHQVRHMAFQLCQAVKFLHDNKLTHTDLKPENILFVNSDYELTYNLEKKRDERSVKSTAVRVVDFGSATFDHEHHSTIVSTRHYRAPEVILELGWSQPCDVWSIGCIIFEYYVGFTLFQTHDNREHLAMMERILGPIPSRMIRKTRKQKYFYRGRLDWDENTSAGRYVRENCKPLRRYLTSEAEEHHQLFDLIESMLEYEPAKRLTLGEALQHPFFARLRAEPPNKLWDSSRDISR
T7 sequence (Q07002 whole entry): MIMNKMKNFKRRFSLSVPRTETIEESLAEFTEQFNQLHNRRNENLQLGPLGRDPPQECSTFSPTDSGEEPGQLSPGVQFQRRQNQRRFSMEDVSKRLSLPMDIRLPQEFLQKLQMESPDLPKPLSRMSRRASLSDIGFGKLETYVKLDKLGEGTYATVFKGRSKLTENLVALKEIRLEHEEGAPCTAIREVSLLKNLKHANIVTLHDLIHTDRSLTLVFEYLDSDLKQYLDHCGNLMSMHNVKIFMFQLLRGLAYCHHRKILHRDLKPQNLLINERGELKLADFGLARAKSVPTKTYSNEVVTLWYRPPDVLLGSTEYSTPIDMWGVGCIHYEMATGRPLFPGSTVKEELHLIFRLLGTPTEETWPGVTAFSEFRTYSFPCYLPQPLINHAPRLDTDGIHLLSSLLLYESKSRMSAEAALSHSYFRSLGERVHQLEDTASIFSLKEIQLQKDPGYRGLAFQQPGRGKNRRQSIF
T8 sequence (P49841 whole entry): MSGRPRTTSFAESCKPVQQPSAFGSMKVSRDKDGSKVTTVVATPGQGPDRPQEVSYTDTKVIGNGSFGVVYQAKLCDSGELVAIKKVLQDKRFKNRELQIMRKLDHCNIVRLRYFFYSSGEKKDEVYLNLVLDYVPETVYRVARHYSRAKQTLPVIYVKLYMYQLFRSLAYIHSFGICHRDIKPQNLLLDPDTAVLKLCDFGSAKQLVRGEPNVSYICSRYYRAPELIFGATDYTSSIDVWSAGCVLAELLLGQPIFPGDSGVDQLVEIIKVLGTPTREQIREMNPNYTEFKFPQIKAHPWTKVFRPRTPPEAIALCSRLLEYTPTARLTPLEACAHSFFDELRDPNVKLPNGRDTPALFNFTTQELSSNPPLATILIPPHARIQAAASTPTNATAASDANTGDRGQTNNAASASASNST

Structure (SMILES): CN1CCN(Cc2ccc(-c3cnc4[nH]cc(-c5ccncc5)c4c3)cc2)CC1 [Compound 7n, 5-(4-((4-Methylpiperazin-1-yl)methyl)phenyl)-3-(pyridin-4-yl)-1H-pyrrolo[2,3-b]pyridine]
- remaining activity at 0.1 µM [1]: 87.4%
- remaining activity at 0.1 µM [2]: 39.3%
- remaining activity at 0.1 µM [3]: 107%
- remaining activity at 0.1 µM [4]: 23.6%
- remaining activity at 0.1 µM ([5]; CDK4/cyclin D1): 27.8%
- remaining activity at 0.1 µM ([5]; CDK4/cyclin D3): 37%
- remaining activity at 0.1 µM ([6]; CDK2/cyclin A1): 60.2%
- remaining activity at 0.1 µM ([6]; CDK2/cyclin A): 66%
- remaining activity at 0.1 µM ([6]; CDK2/cyclin E): 54.3%
- remaining activity at 0.1 µM ([6]; CDK2/cyclin O): 43.7%
- remaining activity at 0.1 µM [7]: 24%
- remaining activity at 0.1 µM [8]: 90.7%
- remaining activity at 0.1 µM [9]: 94.1%
- remaining activity at 0.1 µM [10]: 40.3%

Structure (SMILES): CN1CCN(Cc2ccc(-c3cnc4[nH]cc(-c5ccoc5)c4c3)cc2)CC1 [Compound 7w, 3-(Furan-3-yl)-5-(4-((4-methylpiperazin-1-yl)methyl)phenyl)-1H-pyrrolo[2,3-b]pyridine]
- remaining activity at 0.1 µM [1]: 90%
- remaining activity at 0.1 µM [2]: 14.8%
- remaining activity at 0.1 µM [3]: 102%
- remaining activity at 0.1 µM [4]: 59.2%
- remaining activity at 0.1 µM ([5]; CDK4/cyclin D1): 73.4%
- remaining activity at 0.1 µM ([5]; CDK4/cyclin D3): 72.2%
- remaining activity at 0.1 µM ([6]; CDK2/cyclin A1): 88.6%
- remaining activity at 0.1 µM ([6]; CDK2/cyclin A): 91.1%
- remaining activity at 0.1 µM ([6]; CDK2/cyclin E): 92.4%
- remaining activity at 0.1 µM ([6]; CDK2/cyclin O): 80.2%
- remaining activity at 0.1 µM [7]: 94.5%
- remaining activity at 0.1 µM [8]: 85.1%
- remaining activity at 0.1 µM [9]: 89.7%
- remaining activity at 0.1 µM [10]: 71.2%

From US12227500B2, “Substituted pyrrolo[2,3-b]pyridines for suppressing toxic endoplasmic reticulum stress” (THE TRUSTEES OF COLUMBIA UNIVERSITY IN THE CITY OF NEW YORK, priority 2018, dated 2025)
